Key:
Format in all cases: in vivo
[1] = tested on: Echinochloa oryzacola Vasing.; test: Test Example 2: herbicidal activity, application during weed generation in submerged conditions; details: Eighteenth Table
In short: (§1)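 Post-emergence application under submerged conditions: water-diluted emulsion dosed onto the water surface (g/ha) when weeds reach one- to two-leaf stage. Soil flooded to 4 cm; greenhouse 25–30 °C. Herbicidal ratio graded in six classes, 0 (≤5%) to 5 (≥90%), at three weeks.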

Monochoria vaginalis = test: as above; details: Eighteenth Table
In short: as §1

Scirpus juncoides = test: as above; details: Eighteenth Table
In short: as §1

Abutilon theophrasti = test: Test Example 4: herbicidal effect by application to foliage (diluvial soil, plastic box); details: for M (Abutilon theophrasti) herbicidal effect: application to foliage, application herbicide amount 320 g/ha
In short: (§2)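 Emulsion-formulated compound, diluted to a predetermined g/ha dose, applied by small sprayer to leaves and stems of 14-day-old seedlings grown in sterilized diluvial soil. Effect rated on 0–5 herbicidal-ratio scale three weeks on.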

Alopecurus myosuroides = test: as above; details: for J (Alopecurus myosuroides) herbicidal effect: application to foliage, application herbicide amount 320 g/ha
In short: as §2

Apera spica-venti. = test: as above; details: for L (Apera spica-venti.) herbicidal effect: application to foliage, application herbicide amount 320 g/ha
In short: as §2

Avena fatua = test: as above; details: for I (Avena fatua) herbicidal effect: application to foliage, application herbicide amount 320 g/ha
In short: as §2

Chenopodium album = test: as above; details: for O (Chenopodium album) herbicidal effect: application to foliage, application herbicide amount 320 g/ha
In short: as §2

Digitaria ciliaris = test: as above; details: for F (Digitaria ciliaris) herbicidal effect: application to foliage, application herbicide amount 320 g/ha
In short: as §2

[2] = tested on: Echinochloa crus-galli var. crus-galli; test: as above; details: for H (Echinochloa crus-galli var. crus-galli) herbicidal effect: application to foliage, application herbicide amount 320 g/ha
In short: as §2

Galium spurium = test: as above; details: for Q (Galium spurium) herbicidal effect: application to foliage, application herbicide amount 320 g/ha
In short: as §2

Lolium multiflorum Lam. = test: as above; details: for K (Lolium multiflorum Lam.) herbicidal effect: application to foliage, application herbicide amount 320 g/ha
In short: as §2

Setaria viridis = test: as above; details: for G (Setaria viridis) herbicidal effect: application to foliage, application herbicide amount 320 g/ha
In short: as §2

Veronica persica = test: as above; details: for R (Veronica persica) herbicidal effect: application to foliage, application herbicide amount 320 g/ha
In short: as §2

[3] = tested on: Beta vulgaris ssp. vulgaris; test: Test Example 4: effect on crop by application to foliage (diluvial soil, plastic box); details: for f (Beta vulgaris ssp. vulgaris) effect on crop: application to foliage, application herbicide amount 320 g/ha
In short: as §2

Brassica campestris L. = test: as above; details: for g (Brassica campestris L.) effect on crop: application to foliage, application herbicide amount 320 g/ha
In short: as §2

Glycine max = test: as above; details: for c (Glycine max) effect on crop: application to foliage, application herbicide amount 320 g/ha
In short: as §2

Triticum aestivum = test: as above; details: for e (Triticum aestivum) effect on crop: application to foliage, application herbicide amount 320 g/ha
In short: as §2

Zea mays = test: as above; details: for b (Zea mays) effect on crop: application to foliage, application herbicide amount 320 g/ha
In short: as §2

[4] = tested on: directly sowed Oryza sativa; test: as above; details: for d (directly sowed Oryza sativa) effect on crop: application to foliage, application herbicide amount 320 g/ha
In short: as §2

[5] = application herbicide amount 320 g/ha
[6] = application herbicide amount 280 g/ha
[7] = Application herbicide amount 320 g/ha
[8] = Application herbicide amount 320 g/ha, effect on crop

Compound	A (Echinochloa oryzicola Vasing.) herbicidal ratio grade [1, 5]	C (Monochoria vaginalis) herbicidal ratio grade (Monochoria vaginalis; [5])	B (Scirpus juncoides) herbicidal ratio grade (Scirpus juncoides; [5])	M (Abutilon theophrasti) herbicidal effect (Abutilon theophrasti)	J (Alopecurus myosuroides) herbicidal effect (Alopecurus myosuroides)	L (Apera spica-venti.) herbicidal effect (Apera spica-venti.)	I (Avena fatua) herbicidal effect (Avena fatua)	O (Chenopodium album) herbicidal effect (Chenopodium album)	F (Digitaria ciliaris) herbicidal effect (Digitaria ciliaris)	H (Echinochloa crus-galli var. crus-galli) herbicidal effect [2]	Q (Galium spurium) herbicidal effect (Galium spurium)	K (Lolium multiflorum Lam.) herbicidal effect (Lolium multiflorum Lam.)	G (Setaria viridis) herbicidal effect (Setaria viridis)	R (Veronica persica) herbicidal effect (Veronica persica)	f (Beta vulgaris ssp. vulgaris) effect on crop [3]	g (Brassica campestris L.) effect on crop (Brassica campestris L.)	c (Glycine max) effect on crop (Glycine max)	e (Triticum aestivum) effect on crop (Triticum aestivum)	b (Zea mays) effect on crop (Zea mays)	d (directly sowed Oryza sativa) effect on crop [4]	further results
Cc1nnc(NC(=O)c2ccc(C(F)(F)F)n3c(-c4ccc(F)cc4)nnc23)o1 [1-044]	2 (Herbicidal ratio of 20% or more and less than 40%)	2 (Herbicidal ratio of 20% or more and less than 40%)	3 (Herbicidal ratio of 40% or more and less than 70%)	5 (Herbicidal ratio of 90% or more (almost completely withered))	1 (Herbicidal ratio of 5% or more and less than 20%)	4 (Herbicidal ratio of 70% or more and less than 90%)	1 (Herbicidal ratio of 5% or more and less than 20%)	5 (Herbicidal ratio of 90% or more (almost completely withered))	4 (Herbicidal ratio of 70% or more and less than 90%)	5 (Herbicidal ratio of 90% or more (almost completely withered))	3 (Herbicidal ratio of 40% or more and less than 70%)	2 (Herbicidal ratio of 20% or more and less than 40%)	4 (Herbicidal ratio of 70% or more and less than 90%)	5 (Herbicidal ratio of 90% or more (almost completely withered))	5 (Herbicidal ratio of 90% or more (almost completely withered))	4 (Herbicidal ratio of 70% or more and less than 90%)	0 (Herbicidal ratio of 5% or less (almost no effect))	0 (Herbicidal ratio of 5% or less (almost no effect))	0 (Herbicidal ratio of 5% or less (almost no effect))	3 (Herbicidal ratio of 40% or more and less than 70%)	
Cc1nnc(NC(=O)c2ccc(C(F)(F)F)n3c(Br)nnc23)o1 [1-014]				4 (Herbicidal ratio of 70% or more and less than 90%)	1 (Herbicidal ratio of 5% or more and less than 20%)	0 (Herbicidal ratio of 5% or less (almost no effect))	1 (Herbicidal ratio of 5% or more and less than 20%)	5 (Herbicidal ratio of 90% or more (almost completely withered))	3 (Herbicidal ratio of 40% or more and less than 70%)	4 (Herbicidal ratio of 70% or more and less than 90%)	3 (Herbicidal ratio of 40% or more and less than 70%)	1 (Herbicidal ratio of 5% or more and less than 20%)	3 (Herbicidal ratio of 40% or more and less than 70%)	4 (Herbicidal ratio of 70% or more and less than 90%)	5 (Herbicidal ratio of 90% or more (almost completely withered))	2 (Herbicidal ratio of 20% or more and less than 40%)	0 (Herbicidal ratio of 5% or less (almost no effect))	1 (Herbicidal ratio of 5% or more and less than 20%)	1 (Herbicidal ratio of 5% or more and less than 20%)	3 (Herbicidal ratio of 40% or more and less than 70%)	A (Echinochloa oryzicola Vasing.) herbicidal ratio grade [1, 6]: 2 (Herbicidal ratio of 20% or more and less than 40%); C (Monochoria vaginalis) herbicidal ratio grade (Monochoria vaginalis; [6]): 0 (Herbicidal ratio of 5% or less (almost no effect)); B (Scirpus juncoides) herbicidal ratio grade (Scirpus juncoides; [6]): 3 (Herbicidal ratio of 40% or more and less than 70%)
Cc1nnc(NC(=O)c2ccc(C(F)(F)F)n3c(-c4cccs4)nnc23)o1 [1-057]	2 (Herbicidal ratio of 20% or more and less than 40%)	3 (Herbicidal ratio of 40% or more and less than 70%)	3 (Herbicidal ratio of 40% or more and less than 70%)																		M (Abutilon theophrasti; [7]): 5 (Herbicidal ratio of 90% or more (almost completely withered)); J (Alopecurus myosuroides; [7]): 2 (Herbicidal ratio of 20% or more and less than 40%); L (Apera spica-venti.; [7]): 2 (Herbicidal ratio of 20% or more and less than 40%); I (Avena fatua; [7]): 3 (Herbicidal ratio of 40% or more and less than 70%); O (Chenopodium album; [7]): 5 (Herbicidal ratio of 90% or more (almost completely withered)); F (Digitaria ciliaris; [7]): 4 (Herbicidal ratio of 70% or more and less than 90%); H [2, 7]: 4 (Herbicidal ratio of 70% or more and less than 90%); Q (Galium spurium; [7]): 1 (Herbicidal ratio of 5% or more and less than 20%); K (Lolium multiflorum Lam.; [7]): 2 (Herbicidal ratio of 20% or more and less than 40%); G (Setaria viridis; [7]): 4 (Herbicidal ratio of 70% or more and less than 90%); R (Veronica persica; [7]): 5 (Herbicidal ratio of 90% or more (almost completely withered)); f [3, 8]: 5 (Herbicidal ratio of 90% or more (almost completely withered)); g (Brassica campestris L.; [8]): 3 (Herbicidal ratio of 40% or more and less than 70%); c (Glycine max; [8]): 1 (Herbicidal ratio of 5% or more and less than 20%); e (Triticum aestivum; [8]): 0 (Herbicidal ratio of 5% or less (almost no effect)); b (Zea mays; [8]): 0 (Herbicidal ratio of 5% or less (almost no effect)); d [4, 8]: 3 (Herbicidal ratio of 40% or more and less than 70%)

From patent US9708314B2, “Heterocyclic amide compound” (NISSAN CHEMICAL INDUSTRIES, LTD., priority 2013, dated 2017)
